In patent publication US11453633B2, “Production method for crystal of reduced coenzyme Q10 having excellent stability” (KANEKA CORPORATION, priority 2018, dated 2022):

Legend:
[1] = Reduced coenzyme Q10 concentration dissolved in the liquid phase of the crystallization mixture, by HPLC (Example 11); format: physicochemical; conditions: 99.5% ethanol
Description: The inside of a 500 mL separable flask (made of borosilicate glass) was replaced with nitrogen, and 40.0 g of reduced coenzyme Q10 and 360 g of 99.5% ethanol were then added thereto (reduced coenzyme Q10 concentration: 10 wt. %). Thereafter, the obtained raw material mixture was warmed to 42° C. while stirring with a stirring blade (power required for stirring: 0.1 kw/m^3) to obtain a homogeneous solution. This solution was cooled to 35° C., and thereafter, 0.4 g (1 wt. %) of reduced coenzyme Q10 crystals comprising reduced coenzyme Q10 Form II crystals were added as seed crystals to the solution.
The mixture obtained after the addition of the seed crystals was kept at 35° C. for 15 hours to precipitate crystals. Thereafter, the mixture was cooled to 25° C. at a constant cooling rate of −2° C./hour over 5 hours, and was then cooled to 10° C. at a constant cooling rate of −10° C./hour over 1.5 hours, to further precipitate crystals. After the temperature had reached 10° C., the mixture was filtered for solid-liquid separation. The obtained crystal was dried under reduced pressure at 35° C. for 10 hours to obtain a reduced coenzyme Q10 Form II crystal (Form II rate: 100%; recovery rate: 97%).
In the present experiment, the liquid phase of the mixture was sampled immediately before addition of the seed crystals (at 0 hour), and then at 3 hours, 6 hours, 9 hours, 12 hours, 15 hours (so far, at 35° C.), 17.5 hours (30° C.), 20 hours (25° C.), 20.5 hours (20° C.), and 21.5 hours (10° C.) after the addition of the seed crystals. The concentration (wt. %) of reduced coenzyme Q10 dissolved in the liquid phase sample was measured according to high performance liquid chromatography.
Conditions for the high performance liquid chromatography, by which the reduced coenzyme Q10 concentration was measured, are shown below.
Column: SYMMETRY C18 (manufactured by Waters); 250 mm (length), 4.6 mm (inner diameter)
Mobile phase: C2H5OH:CH3OH=4:3 (v:v)
Detection wavelength: 210 nm
Retention time of reduced coenzyme Q10: 9.1 min.

[2] = compared with oxidized coenzyme Q10; cited from earlier work
[3] = compared with the conventional reduced coenzyme Q10 Form I crystal; cited from earlier work

Row | SMILES | Reduced coenzyme Q10 concentration ([1]; crystallization time 0 h (immediately before addition of the seed crystals), 35° C.) | Reduced coenzyme Q10 concentration ([1]; crystallization time 3 h, 35° C.) | Reduced coenzyme Q10 concentration ([1]; crystallization time 6 h, 35° C.) | Reduced coenzyme Q10 concentration ([1]; crystallization time 9 h, 35° C.) | Reduced coenzyme Q10 concentration ([1]; crystallization time 12 h, 35° C.) | Reduced coenzyme Q10 concentration ([1]; crystallization time 15 h, 35° C.) | Reduced coenzyme Q10 concentration ([1]; crystallization time 17.5 h, 30° C.) | Reduced coenzyme Q10 concentration ([1]; crystallization time 20 h, 25° C.) | Reduced coenzyme Q10 concentration ([1]; crystallization time 20.5 h, 20° C.) | Reduced coenzyme Q10 concentration ([1]; crystallization time 21.5 h, 10° C.) | oral absorbability [2] | stability of the crystal form [3]
1 | COc1c(O)c(C)c(C/C=C(\C)CC/C=C(\C)CC/C=C(\C)CC/C=C(\C)CC/C=C(\C)CC/C=C(\C)CC/C=C(\C)CC/C=C(\C)CC/C=C(\C)CCC=C(C)C)c(O)c1OC [reduced coenzyme Q10] | 10.0 wt % | 9.9 wt % | 9.6 wt % | 9.2 wt % | 8.5 wt % | 7.2 wt % | 3.1 wt % | 1.5 wt % | 0.8 wt % | 0.3 wt % | higher oral absorbability than that of oxidized coenzyme Q10 | 
2 | COc1c(O)c(C)c(C/C=C(\C)CC/C=C(\C)CC/C=C(\C)CC/C=C(\C)CC/C=C(\C)CC/C=C(\C)CC/C=C(\C)CC/C=C(\C)CC/C=C(\C)CCC=C(C)C)c(O)c1OC [reduced coenzyme Q10 Form II crystal, reduced coenzyme Q10] |  |  |  |  |  |  |  |  |  |  |  | much more stable
